The source of these data is patent publication US5997843A, “Radiometal complexes that localise in hypoxic tissue” (priority 1993, dated 1999).

SMILES strings stand for the structures. Entries after “also recorded” stand apart in the source; their conditions may differ. Where two headings read alike, the source gives them in different places.

In data set [1] the test system is isolated (Langendorff) rat hearts. In words: Isolated perfused heart (Langendorff), hypoxic vs oxic uptake/retention. Particulars: for Hypoxic/Oxic Ratio (H/O): ^99m Tc complex (or ^123 I-IAZA), 20 min infusion, 15 min washout; for Normalised Hypoxic Retention: relative to ^3 H-misonidazole activity. As to the method:
A 15-minute cold buffer washout period follows. y activity in the heart is monitored using a collimated NaI probe detector positioned over the heart.
Activity in hearts, relative to perfusate activity, is calculated for each nuclide and data evaluated for each compound for activity in hypoxic and oxic hearts (hypoxic:oxic ratio) and also relative to the 3 H-misonidazole activity (normalised retention) using Formula 1. [formula] Results

For data set [2] the following is noted: rat, cited from earlier work.
In data set [3] the test system is xanthine oxidase. Put plainly: Xanthine oxidase (XOD) with hypoxanthine in PBS reduction test. It is filed as biochemical. As to conditions: ^99m Tc complex, HPLC. As to the method: b) Xanthine Oxidase (XOD) with Hypoxanthine in Phosphate Buffered Saline (PBS)
Xanthine oxidase (16 mg) was weighed into a P6 vial. the vial was capped, oversealed and purged with nitrogen gas. Nitrogen purged phosphate buffered saline (1 ml) was added to the vial containing the xanthine oxidase.
Hypoxanthine (4.1 mg) was weighed into a P6 vial. The vial was capped, oversealed and purged with nitrogen gas. To the hypoxanthine was added (1 ml) of the xanthine oxidase in PBS.
1 ml of the ligand solution or 1 ml of the ^99m Tc-complex preparation was then added to the reducing mixture, shaken, and aliquots were taken at 20 minute time intervals.

Data set [4] concerns xanthine oxidase. As to conditions: ^99 Tc complex; cited from earlier work.
The next data set can be described thus: Biodistribution in rats. The data set is classed as in vivo, male rats. Particulars: i.v. As to the method: Biodistribution in Rats--Methods
The quantitative biodistribution was studied in male rats at 2 minutes, 1 hour and 4 hours post-injection
Rats under light anaesthesia were injected intravenously with 0.1 ml of test agent. Three rats were sacrificed (anaesthesia followed by exsanguination) at 2, 60 and 240 minutes, post-injection. The percentage of the injected dose in the excreta and organs and tissues was determined by dissection and assay for radioactivity in an automatic gamma counter.

The mark [5] stands for this setting: 2 min post-injection, ^99m Tc complex.
[6] abbreviates: 240 min post-injection (third printed value).
Setting [7] is: second of two values, 60 or 240 min not assignable.

For `CC(=NO)C(C)(C)NCCCNC(C)(C)C(C)=NO` [Compound X, reference compound], in data set [1], the “Hypoxic/Oxic Ratio (H/O)” value is 5.1 and the “Normalised Hypoxic Retention” value is given as 0.50. Further, in data set [2] (in vivo, 0.5 min), the brain uptake is 1.3 % injected dose. Moreover, the “Xanthine oxidase reduction test result” value in the data set with xanthine oxidase [3] is recorded as “positive”. Also, the “Xanthine oxidase reduction test result” value with xanthine oxidase [3] (listed as PnAO) is on record as “reduced by xanthine oxidase”. Also, the “reduction by xanthine oxidase” value in the data set on xanthine oxidase [4] is recorded as “not reduced”. Besides, in “Biodistribution in rats” (2 min post-injection), the Bladder/Urine was found to be 0.1 percent injected dose, the Blood was 5.0 percent injected dose, the Gut was found to be 11.7 percent injected dose and the Kidney is 1.8 percent injected dose. Moreover, the Liver in “Biodistribution in rats” (2 min post-injection) was 27.9 percent injected dose. In addition, the Muscle in the data set “Biodistribution in rats” (setting [5]) stood at 34.9 percent injected dose. Besides, in the data set “Biodistribution in rats” (60 min post-injection), the Gut worked out at 51.5 percent injected dose and the Muscle is on record as 7.9 percent injected dose. In “Biodistribution in rats” (setting [6]), this compound returned a Muscle of 2.6 percent injected dose. This compound gave a Gut in “Biodistribution in rats” (240 min post-injection) of 53.4 percent injected dose. Also, in the data set “Biodistribution in rats” (setting [7]), the Blood amounted to 6.8 percent injected dose, the Kidney is recorded as 2.1 percent injected dose and the Liver was found to be 13.1 percent injected dose.
Regarding `CC(=NO)C(C)(C)NCCCCNC(C)(C)C(C)=NO` [Compound I, 4,9-diaza-3,3,10,10-tetramethyldodecan-2,11',-dione dioxime], in data set [1], the “hypoxia selectivity / hypoxic/oxic ratio / hypoxic retention (in words)” value was “significantly greater than seen for other ^99m Tc test agents and ^123 I-IAZA; also recorded: greater than that for ^99m Tc-PnAO; also recorded: at least equivalent to ^123 I-IAZA; also recorded: significantly greater hypoxic cell selectivity than the corresponding nitroimidazole conjugate”; the “Hypoxic/Oxic Ratio (H/O)” value amounted to 54; the “Normalised Hypoxic Retention” value was 2.2. The “normalised hypoxic retention, times greater than ^3 H misonidazole” value in data set [1] (isolated buffer perfused rat heart model) was “at least 2 times”. Also, the brain uptake in data set [2] (30 sec pi, ^99m Tc complex) is listed as 0.12 % injected dose. Also, in the data set on xanthine oxidase [3], the “Xanthine oxidase reduction test result” value is given as “positive”. In “Biodistribution in rats” (2 min post-injection), this compound registered a Bladder/Urine of 0.6 percent injected dose, a Blood of 9.7 percent injected dose, a Gut of 11.2 percent injected dose and a Kidney of 7.5 percent injected dose. In “Biodistribution in rats” (2 min post-injection), this compound yielded a Liver of 10.6 percent injected dose. This compound also showed a Muscle in the data set “Biodistribution in rats” (setting [5]) of 35.2 percent injected dose. Besides, in the data set “Biodistribution in rats” (60 min post-injection), the Gut came out at 22.3 percent injected dose and the Muscle is listed as 12.5 percent injected dose. Moreover, the Muscle in “Biodistribution in rats” (setting [6]) is on record as 3.5 percent injected dose. The compound further gave a Gut in the data set “Biodistribution in rats” (240 min post-injection) of 24.4 percent injected dose. In the data set “Biodistribution in rats” (setting [7]), this compound came in with a Blood of 2.4 percent injected dose, a Kidney of 5.6 percent injected dose and a Liver of 9.1 percent injected dose.
